According to ChEMBL document CHEMBL4130392, “Eugenol derived immunomodulatory molecules against visceral leishmaniasis” (Eur J Med Chem, 2017):

Experiments:
Peritoneal macrophage [1] = assay: Cytotoxicity against BALB/c mouse peritoneal macrophages after 48 hrs by MTT assay; type: cell-based
Peritoneal macrophage [2] = assay: Induction of NO generation in Leishmania donovani MHOM/IN/AG/83 infected BALB/c mouse peritoneal macrophages assessed as nitrite levels after 48 hrs by Griess assay relative to untreated control; type: functional
Leishmania donovani [3] = assay: Antileishmanial activity against Leishmania donovani MHOM/IN/AG/83 promastigotes after 48 hrs by MTT assay; type: functional, organism-based; conditions: MHOM/IN/AG/83, 48 h
[4] = Therapeutic index, ratio of IC50 for mouse RAW264.7 cells to IC50 for Leishmania donovani MHOM/IN/AG/83 promastigotes; type: toxicity; conditions: read-out: Ratio IC50
[5] = Therapeutic index, ratio of EC50 for BALB/c mouse peritoneal macrophages to EC50 for Leishmania donovani MHOM/IN/AG/83 amastigotes; type: toxicity; conditions: read-out: Ratio EC50
Leishmania donovani [6] = assay: Antileishmanial activity against Leishmania donovani MHOM/IN/AG/83 amastigotes infected in BALB/c mouse peritoneal macrophages after 42 hrs by Giemsa staining-based microscopic analysis; type: functional, organism-based; conditions: MHOM/IN/AG/83, 42 h
[7] = Drug uptake in mouse RAW264.7 cells assessed as retention time at 10 ug/ml incubated for 3 hrs by HPLC method; type: ADME, cell-based; conditions: raw264.7, 3 h
[8] = Drug uptake in mouse RAW264.7 cells assessed as ratio of drug level (cell lysate)/(drug level (supernatant) + drug level (cell lysate) at 10 ug/ml incubated for 3 hrs by HPLC method; type: ADME, cell-based; conditions: raw264.7, 3 h
RAW264.7 = assay: Cytotoxicity against mouse RAW264.7 cells after 48 hrs by MTT assay; type: cell-based; conditions: RAW264.7, 48 h

C=CCc1ccc(O)c(OC)c1 [EUGENOL]
EC50 (Peritoneal macrophage [1]): 476 µM
Activity (Peritoneal macrophage [2]): Dose-dependent effect
Activity (Peritoneal macrophage [2]; record 2): 7.45 µM
IC50 (Leishmania donovani [3]): 442 µM
selectivity ratio [4]: 1.19
selectivity ratio [5]: 2.75
EC50 (Leishmania donovani [6]): 173 µM
Retention_time [7]: 3.133 min
Ratio [8]: 0.21
IC50 (RAW264.7): 527 µM

C=CCc1ccc(OC(C)=O)c(OC)c1 [EUGENYL ACETATE]
EC50 (Peritoneal macrophage [1]): 352 µM
Activity (Peritoneal macrophage [2]): Dose-dependent effect
Activity (Peritoneal macrophage [2]; record 2): 12.44 µM
IC50 (Leishmania donovani [3]): 166 µM
selectivity ratio [4]: 2.15
selectivity ratio [5]: 3.59
EC50 (Leishmania donovani [6]): 99.1 µM
IC50 (RAW264.7): 356 µM

C=CCc1ccc(OC(=O)c2ccccc2Cl)c(OC)c1
EC50 (Peritoneal macrophage [1]): 275 µM
Activity (Peritoneal macrophage [2]): Dose-dependent effect
Activity (Peritoneal macrophage [2]; record 2): 14.58 µM
IC50 (Leishmania donovani [3]): 64.5 µM
selectivity ratio [4]: 3.91
selectivity ratio [5]: 4.79
EC50 (Leishmania donovani [6]): 57.9 µM
IC50 (RAW264.7): 251 µM

C=CCc1ccc(OCCCCCCCCCCCC)c(OC)c1
EC50 (Peritoneal macrophage [1]): 292 µM
Activity (Peritoneal macrophage [2]): Dose-dependent effect
Activity (Peritoneal macrophage [2]; record 2): 28.12 µM
IC50 (Leishmania donovani [3]): 52.5 µM
selectivity ratio [4]: 5.76
selectivity ratio [5]: 11.4
EC50 (Leishmania donovani [6]): 26 µM
IC50 (RAW264.7): 299 µM

C=CCc1ccc(OCCCCCCCCC)c(OC)c1
EC50 (Peritoneal macrophage [1]): 326 µM
Activity (Peritoneal macrophage [2]): Dose-dependent effect
Activity (Peritoneal macrophage [2]; record 2): 25.19 µM
IC50 (Leishmania donovani [3]): 81.9 µM
selectivity ratio [4]: 4.27
selectivity ratio [5]: 6.47
EC50 (Leishmania donovani [6]): 51.8 µM
IC50 (RAW264.7): 332 µM

C=CCc1ccc(OCC=C(C)C)c(OC)c1
EC50 (Peritoneal macrophage [1]): 372 µM
Activity (Peritoneal macrophage [2]): Dose-dependent effect
Activity (Peritoneal macrophage [2]; record 2): 8.37 µM
IC50 (Leishmania donovani [3]): 242 µM
selectivity ratio [4]: 1.48
selectivity ratio [5]: 2.38
EC50 (Leishmania donovani [6]): 157 µM
IC50 (RAW264.7): 359 µM

C=CCc1ccc(OC(=O)COc2ccccc2)c(OC)c1
EC50 (Peritoneal macrophage [1]): 391 µM
Activity (Peritoneal macrophage [2]): Dose-dependent effect
Activity (Peritoneal macrophage [2]; record 2): 39.02 µM
IC50 (Leishmania donovani [3]): 28.9 µM
selectivity ratio [4]: 13.7
selectivity ratio [5]: 55.1
EC50 (Leishmania donovani [6]): 7.17 µM
Retention_time [7]: 3.867 min
Ratio [8]: 0.73
IC50 (RAW264.7): 396 µM
